Tested on: MDS patients
Test: Response to treatment by IWG response criteria revised in 2006 (CR/PR/HI = responders)
Format: in vivo, human
Conditions: for Non-Responders (NR/SD/PD/Died/NE) (%) / Non-Responders (NR/SD/PD/Died/NE) N / Responders (CR/PR/HI) N / Responders (CR/PR/HI) (%): all patients on the treatment
Text: A total of 213 MDS patients treated azacitidine or decitabine were included in this study. Samples were obtained from patients treated at the Dana-Farber Cancer Institute (n=42), the MD Anderson Cancer Center (n=104), and as part of the DACO-020 (ADOPT) clinical trial of decitabine (n=67). All samples were collected with patient consent under IRB-approved protocols in accordance with the Declaration of Helsinki. There were no significant differences in baseline patient characteristics by treatment site (Table 1).
Response to treatment was assessed using IWG response criteria revised in 2006. Patients with either a complete response (CR), partial response (PR), or hematologic improvement (HI) were considered as ‘responders’ (R, n=100, 47%). whereas patients described as having ‘no response’, ‘stable disease’, ‘progressive disease’, ‘death’ before response assessment, or ‘not evaluable’ were considered ‘non-responders’ (NR, […], 53%).
Categorical variables were compared using a Fisher exact test, while continuous variables were compared using a Wilcoxon rank-sum test. A Cochran-Mantel-Haenszel (CMH) test was used to test for differences in response rate by mutational status controlling for treatment. Unadjusted and adjusted logistic regression models were used to predict response to therapy. A stepwise algorithm for logistic regression was also utilized to determine a final model; candidate variables considered for inclusion were all mutations, treatment, IPSS classification, age, and sex. The Hosmer and Lemeshow goodness-of-fit test was used to assess model fit for logistic regression models. Overall survival was calculated from the time of treatment to the time of death from any cause or was censored at the date last known alive. Unadjusted and adjusted Cox regression models were constructed for overall survival. A stepwise regression algorithm for Cox regression models was used including the same candidate variables as in the logistic regression modeling. Classification trees were also created using the Rpart package in R version 2.11.1 to classify responders based on mutational status. Cross-validation was used for tree pruning. All p-values reported are two-sided and considered significant at the 0.05 level. No adjustments were made for multiple hypothesis testing.

Nc1ncn([C@H]2C[C@H](O)[C@@H](CO)O2)c(=O)n1 [decitabine, 5-aza-2′-deoxycytidine]
Non-Responders (NR/SD/PD/Died/NE) (%): (53) % | Non-Responders (NR/SD/PD/Died/NE) N: 76 N | Responders (CR/PR/HI) N: 68 N | Responders (CR/PR/HI) (%) (listed as Dec Alone): 47% | Responders (CR/PR/HI) (%) (listed as Decitabine Alone): (47) % | Response (%) (patients with ASXL1 mutation): 42% | Response N (patients with ASXL1 mutation): 29 N | Response (%) (patients with ATRX mutation): 25% | Response N (patients with ATRX mutation): 2 N | Response (%) (patients with BCOR mutation): 56% | Response N (patients with BCOR mutation): 9 N | Response (%) (patients with CBL mutation): 11% | Response N (patients with CBL mutation): 1 N | Response (%) (patients with DNMT3A mutation): 36% | Response N (patients with DNMT3A mutation): 8 N | Response (%) (patients with ETV6 mutation): 50% | Response N (patients with ETV6 mutation): 3 N | Response (%) (patients with EZH2 mutation): 44% | Response N (patients with EZH2 mutation): 7 N | Response (%) (patients with IDH1 mutation): 25% | Response N (patients with IDH1 mutation): 2 N | Response (%) (patients with IDH2 mutation): 17% | Response N (patients with IDH2 mutation): 2 N | Response (%) (patients with JAK2 mutation): 40% | Response N (patients with JAK2 mutation): 2 N | Response (%) (patients with KDM3A mutation): 25% | Response N (patients with KDM3A mutation): 2 N | Response (%) (patients with KDM6B mutation): 25% | Response N (patients with KDM6B mutation): 2 N | Response (%) (patients with KRAS mutation): 20% | Response N (patients with KRAS mutation): 1 N | Response (%) (patients with MAML1 mutation): 54% | Response N (patients with MAML1 mutation): 7 N | Response (%) (patients with NF1 mutation): 31% | Response N (patients with NF1 mutation): 4 N | Response (%) (patients with NOTCH1 mutation): 38% | Response N (patients with NOTCH1 mutation): 5 N | Response (%) (patients with NOTCH2 mutation): 58% | Response N (patients with NOTCH2 mutation): 11 N | Response (%) (patients with NPM1 mutation): 71% | Response N (patients with NPM1 mutation): 5 N | Response (%) (patients with NRAS mutation): 73% | Response N (patients with NRAS mutation): 11 N | Response (%) (patients with PHF6 mutation): 50% | Response N (patients with PHF6 mutation): 5 N | Response (%) (patients with PRPF8 mutation): 33% | Response N (patients with PRPF8 mutation): 3 N | Response (%) (patients with PTPN11 mutation): 17% | Response N (patients with PTPN11 mutation): 1 N | Response (%) (patients with RUNX1 mutation): 53% | Response N (patients with RUNX1 mutation): 16 N | Response (%) (patients with SCAF11 mutation): 25% | Response N (patients with SCAF11 mutation): 2 N | Response (%) (patients with SF3B1 mutation): 36% | Response N (patients with SF3B1 mutation): 8 N | Response (%) (patients with SRSF2 mutation): 56% | Response N (patients with SRSF2 mutation): 14 N | Response (%) (patients with TET2 mutation): 54% | Response N (patients with TET2 mutation): 22 N | Response (%) (patients with TLR1 mutation): 71% | Response N (patients with TLR1 mutation): 5 N | Response (%) (patients with TP53 mutation): 47% | Response N (patients with TP53 mutation): 9 N | Response (%) (patients with U2AF1 mutation): 50% | Response N (patients with U2AF1 mutation): 9 N | Response (%) (patients with ZRSR2 mutation): 44% | Response N (patients with ZRSR2 mutation): 4 N

Decitabine+
Non-Responders (NR/SD/PD/Died/NE) (%): (56) % | Non-Responders (NR/SD/PD/Died/NE) N: 15 N | Responders (CR/PR/HI) (%): (44) % | Responders (CR/PR/HI) N: 12 N | Responders (CR/PR/HI) (%) (listed as Dec Plus): 44% | Response (%) (patients with ASXL1 mutation): 50% | Response N (patients with ASXL1 mutation): 3 N | Response (%) (patients with ATRX mutation): 100% | Response N (patients with ATRX mutation): 1 N | Response (%) (patients with BCOR mutation): 50% | Response N (patients with BCOR mutation): 1 N | Response (%) (patients with CBL mutation): 0 (0) % | Response N (patients with CBL mutation): 0 (0) N | Response (%) (patients with DNMT3A mutation): 67% | Response N (patients with DNMT3A mutation): 4 N | Response (%) (patients with ETV6 mutation): 0 (0) % | Response N (patients with ETV6 mutation): 0 (0) N | Response (%) (patients with EZH2 mutation): 0 (0) % | Response N (patients with EZH2 mutation): 0 (0) N | Response (%) (patients with IDH1 mutation): 0 (0) % | Response N (patients with IDH1 mutation): 0 (0) N | Response (%) (patients with IDH2 mutation): 0 (0) % | Response N (patients with IDH2 mutation): 0 (0) N | Response (%) (patients with JAK2 mutation): 0 (0) % | Response N (patients with JAK2 mutation): 0 (0) N | Response (%) (patients with KDM3A mutation): 0 (0) % | Response N (patients with KDM3A mutation): 0 (0) N | Response (%) (patients with KDM6B mutation): 100% | Response N (patients with KDM6B mutation): 3 N | Response (%) (patients with KRAS mutation): 0 (0) % | Response N (patients with KRAS mutation): 0 (0) N | Response (%) (patients with MAML1 mutation): 75% | Response N (patients with MAML1 mutation): 3 N | Response (%) (patients with NF1 mutation): 50% | Response N (patients with NF1 mutation): 1 N | Response (%) (patients with NOTCH1 mutation): 0 (0) % | Response N (patients with NOTCH1 mutation): 0 (0) N | Response (%) (patients with NOTCH2 mutation): 100% | Response N (patients with NOTCH2 mutation): 5 N | Response (%) (patients with NPM1 mutation): 100% | Response N (patients with NPM1 mutation): 1 N | Response (%) (patients with NRAS mutation): 50% | Response N (patients with NRAS mutation): 1 N | Response (%) (patients with PHF6 mutation): 0 (0) % | Response N (patients with PHF6 mutation): 0 (0) N | Response (%) (patients with PRPF8 mutation): 0 (0) % | Response N (patients with PRPF8 mutation): 0 (0) N | Response (%) (patients with PTPN11 mutation): 67% | Response N (patients with PTPN11 mutation): 2 N | Response (%) (patients with RUNX1 mutation): 75% | Response N (patients with RUNX1 mutation): 3 N | Response (%) (patients with SCAF11 mutation): 100% | Response N (patients with SCAF11 mutation): 2 N | Response (%) (patients with SF3B1 mutation): 50% | Response N (patients with SF3B1 mutation): 2 N | Response (%) (patients with SRSF2 mutation): 50% | Response N (patients with SRSF2 mutation): 2 N | Response (%) (patients with TET2 mutation): 80% | Response N (patients with TET2 mutation): 4 N | Response (%) (patients with TLR1 mutation): 67% | Response N (patients with TLR1 mutation): 2 N | Response (%) (patients with TP53 mutation): 42% | Response N (patients with TP53 mutation): 5 N | Response (%) (patients with U2AF1 mutation): 0 (0) % | Response N (patients with U2AF1 mutation): 0 (0) N | Response (%) (patients with ZRSR2 mutation): 0 (0) % | Response N (patients with ZRSR2 mutation): 0 (0) N

Reference: patent publication US11015223B2, “Methods for determining response to a hypomethylating agent” (THE REGENTS OF THE UNIVERSITY OF CALIFORNIA, priority 2013, dated 2021)
